Measured values as given in publication PMC10630888, “Nuclear ERK1/2 signaling potentiation enhances neuroprotection and cognition via Importinα1/KPNA2” (EMBO Molecular Medicine, 2023).
Values joined by “and” are separate entries in the source; they are usually repeats but may differ in a detail not shown here. Equal values may be shown once.

What was measured:
[1] = RB5 brain levels by HPLC-MS/MS; format: in vivo, mouse; parameters: Brain levels measured with mass spectrometry: unit not given here; conditions: single 20 mg/kg i.p.; for Brain levels measured with mass spectrometry: mouse brain homogenate, individual mice, 20 mg/kg
Method: RB5 was quantified in the mouse brain using HPLC‐MS/MS. Brain samples were homogenized with 1:4 w/v of 50% acetonitrile 5% TFA in water with a homogenizer ultra‐turrax and then centrifuged at 13,000 rpm for 10 min at 4°C. The supernatant was collected and centrifuged at 15,871 g for 2 min at 4°C. The supernatant was then collected on ice, extracted using Sep‐Pak cartridges C18, lyophilized and kept at 4°C before HPLC‐MS/MS analysis. Immediately before the analysis, samples were suspended in 100 μl of 0.1% HCOOH in water/8% acetonitrile in auto‐sampler vials.
HPLC‐MS/MS analysis was performed using a system consisting of an Agilent 1200 series HPLC system coupled with an Agilent 6410 Triple Quadruple mass spectrometer. Mass Hunter Workstation v. B.01.03 software was used for data collection and processing (Agilent Technologies, Santa Clara, California, US). The quantification of brain levels of RB5 and Scramble peptides was carried out using an internal standard curve with peptide concentrations ranging from 0.1 to 4 ng/μl. RB5 and Scramble peptides, and the internal standard were separated at room temperature by injecting 10 μl of extracted sample onto a Jupiter C4 300 A analytical column, 2 × 150 mm, 5 μm particle size (Phenomenex, CA). Gradient elution was used for chromatographic separation, using 0.1% formic acid in water as solvent A and acetonitrile as solvent B at a flow rate of 200 μl/min. The elution started with 92% of eluent A and 8% of eluent B maintained for 1 min, followed by a 4 min linear gradient to 75% of eluent B, a 1 min linear gradient to 99% of eluent B, a 2 min isocratic elution, and a 0.5 min linear gradient to 8% of eluent B, which was maintained for 9.5 min to equilibrate the column. The samples were maintained at 4°C in the autosampler.
Peptides were then detected on an Agilent 6410 QQQ mass spectrometer using the following parameters: positive ion mode, 5 kV capillary voltage, cone voltage 500 V, gas flow rate 8 l/min at 350°C, nebulizer gas pressure 40 PSI at 350°C, well time 75 msec and Q1 and Q3 set to unit resolution.

[2] = system: ribosomal protein S6 (Ser 235/236) phosphorylation; test: pS6 (Ser235/236) immunofluorescence in acute striatal slices with glutamate; format: cell-based, mouse; conditions: peptide 50 μM 1 h, individual slices
Method: Adult C57Bl/6 mice were decapitated after cervical dislocation and brain slices were freshly prepared as previously described in Orellana et al ([2012]) and Papale et al ([2016]). Briefly, the brains were rapidly removed from the skull, submerged in ice‐cold sucrose‐based dissecting solution, and sliced into 200 μm‐thick slices using a vibratome. […] After a rapid fixation in 4% PFA, slices were rinsed and cryoprotected overnight at 4°C in 30% sucrose solution. On the following day, slices were cut into 18 μm‐thick slices using a cryostat (Leica CM1850), mounted onto SuperFrost Plus slides (Thermo Scientific) and stored at −20°C until processing for immunohistochemistry or immunofluorescence.
Immunofluorescence was performed as described in Papale et al ([2016]). Briefly, 1 h after blocking in 5% normal goat serum, slices were incubated overnight at 4°C with the following primary antibodies: anti‐phospho (Ser10)‐acetylated (Lys14) histone H3 (1:1,000, Millipore), anti‐phospho‐S6 ribosomal protein (Ser235/236) (1:200, Cell Signaling Technology) anti‐phospho‐S6 ribosomal protein (Ser240/244) (1:200, Cell Signaling), cleaved caspase‐3 (1:200, Cell Signaling Technology), anti‐mutant Huntingtin (1:100, Developmental Studies Hybridoma Bank, University of Iowa, #MW8), and NeuN (1:1,000, Millipore). Corresponding secondary antibodies (Alexa Fluor 546 conjugated anti‐mouse (1:200, Thermo Fisher Scientific), Alexa Fluor 488 conjugated anti‐rabbit (1:500, Thermo Fisher Scientific) and Pacific Blue goat anti‐mouse (1:200, Thermo Fisher Scientific) were incubated at room temperature for 1 h. Sections stained for mutant Huntingtin were incubated with DAPI for 20 min. Sections were subsequently mounted with fluorescent mounting medium (DAKO). Single and double‐labeled images ([…]) were obtained at 40× magnification from the striatum using a laser scanning confocal microscope (Leica SP2) equipped with the corresponding lasers and appropriate filter sets to avoid the crosstalk between the fluorochromes.
In ex‐vivo and in‐vivo immunofluorescence experiments, the number of p‐S6 or p‐AcH3 immunoreactive neurons among NeuN‐positive neurons was counted in 2–3 consecutive striatal sections per mouse in four fields per section. Caspase 3‐positive cells were quantified among NeuN‐positive neurons in each slide and expressed as percentage (ratio between caspase‐3‐positive cells and total NeuN‐positive neurons) for each field acquired through the slide. The number of cells showing mutant Huntingtin inclusions were expressed as a percentage of mutant Huntingtin‐positive cells among DAPI‐positive cells.

contextual fear memory = test: Contextual fear conditioning, rats, intra-hippocampal infusion; format: in vivo, rat; parameters: unit not given here; conditions: 2 mg/ml, 1.0 μl/side into dorsal hippocampus 20 min prior to conditioning, individual rats
Method: Lister Hooded male rats (280–350 g) were housed in pairs, in holding rooms maintained at 21°C on a reversed‐light cycle (12 h light/dark; lights on at 10:00 P.M.). All experiments were conducted in the dark period of the rats. RB5 and Scramble peptides were infused into dorsal hippocampus.
Steel double guide cannulae aimed at the dorsal hippocampus (AP ‐3.50, relative to bregma) were surgical implanted under anesthesia at least 1 week prior to behavioral training and microinfusions. Bilateral infusions with either 2 mg/ml Scramble or RB5, 20 min prior to conditioning (pH 7.0, 1.0 μl/side, rate = […]) via the chronically indwelling cannula were carried out in awake rats using a syringe pump, connected to injectors (28 gauge, projecting 1 mm beyond the guide cannulae) by polyethylene tubing.
Conditioning was performed in one of two distinct contexts. These contexts were designed to differ in a number of distinctive characteristics including size, spatial location, odor, and lighting. During the 3 min conditioning training trial, rats received a single scrambled footshock (0.5 mA for 2 s) 2 min after being placed into one of the conditioning contexts. All rats were returned to the home cages after conditioning. Retrieval tests 3 h (postretrieval short‐term memory, STM), or 2 days (long‐term memory, LTM) after recall again consisted of exposing the rat to the conditioning context for 2 min not delivering a foot shock.
For all protocols, freezing behavior served as a measure of conditioned fear to the context during the conditioning and retrieval tests.

## SCR: ineffective Scramble version of RB5 containing a TAT sequence (GRKKRRQRRRPPRVGPGVPEGVGVAVFGVKEPGQTGDVGPVGE) [reference compound]
[1]; 1 h
  Brain levels measured with mass spectrometry: 6.434 and 8.14
[2]; then glutamate 100 μM 10 min
  pS6 (Ser235/236) immunoreactive neurons among NeuN-positive neurons: 26.24 and 21.87 and 18.27 and 25.45 and 28.87 and 26.8562 and 29.1865 and 24.4192 and 22.75 and 21.51 and 19.87 and 20.18
[2]; then vehicle 10 min
  pS6 (Ser235/236) immunoreactive neurons among NeuN-positive neurons: 12.33 and 13.90 and 11.33 and 13.09 and 9.47 and 11.58 and 11.02 and 10.86 and 14.51
Contextual fear memory; LTM, 2 days
  Freezing behavior: 33.3 (3×) and 58.3 and 16.7 (2×)
Contextual fear memory; PostUS
  Freezing behavior: 16.7 (2×) and 50 (2×) and 33.3 and 0
Contextual fear memory; PreUS
  Freezing behavior: 0
Contextual fear memory; STM, 3 h
  Freezing behavior: 33.3 (2×) and 41.7 and 16.7 and 25 and 8.3

## GRKKRRQRRRPPQGGGGGEPRRTEGVGPGVPGEVEMVKGQPFDV [RB5, six D-amino acids, acetylated N-terminus]
[1]; mice
  Time RB5 is detectable in brain postinjection (mass spectrometry): up to 6 h
[1]; 1 h
  Brain levels measured with mass spectrometry: 92.2252 and 89.7022 and 75.321 and 38.8889 and 66.5288
[1]; 3 h
  Brain levels measured with mass spectrometry: 119.5 and 39.8058 and 101.408 and 83.7545 and 96.934
[1]; 6 h
  Brain levels measured with mass spectrometry: 57.0702 and 47.9263 and 56.5714 and 68.7679 and 72.8353
[1]; 12 h
  Brain levels measured with mass spectrometry: 8.439 and 16.5056 and 9.465 and 6.558
[2]; then glutamate 100 μM 10 min
  pS6 (Ser235/236) immunoreactive neurons among NeuN-positive neurons: blunted and 17.3997 and 19.6901 and 16.4767 and 13.6077 and 18.6740 and 17.1380 and 11.1928 and 12.0526 and 14.5710 and 10.2402 and 9.5439 and 15.5782 and 12.6217 and 14.7339
[2]; then vehicle 10 min
  pS6 (Ser235/236) immunoreactive neurons among NeuN-positive neurons: 13.7412 and 14.9907 and 12.2371 and 13.4483 and 9.59 and 9.671 and 8.798 and 18.1241 and 17.7385 and 16.8553 and 14.4173 and 14.7976 and 16.1024 and 14.3475
Contextual fear memory; LTM, 2 days
  Freezing behavior: markedly enhanced and 33.3 and 58.3 and 83.3 and 50
Contextual fear memory; PostUS
  Freezing behavior: markedly enhanced and 83.3 and 66.7
Contextual fear memory; PreUS
  Freezing behavior: 0
Contextual fear memory; STM, 3 h
  Freezing behavior: markedly enhanced and 58.3 and 75 and 91.7 and 50 and 66.7
